Values after ≈ are worked out from the molar mass of the structure shown.

One may read the MIC as the least concentration at which growth counts as inhibited. Low values mean a more susceptible organism, high ones a less susceptible organism.

The test system of the assay is S. pneumoniae ATCC 49619. The experiment in a line: Minimal inhibitory concentration (MIC) by microdilution method (CLSI M7-A7). In kind it is cell-based, Streptococcus pneumoniae. Particulars: Streptococcus pneumoniae, ATCC49619, cation-adjusted Mueller-Hinton Broth supplemented with 3% (v/v) lysed horse blood. The method, boiled down:
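For S. pneumoniae, cation-adjusted Mueller-Hinton broth carried 3% (v/v) lysed horse blood; MICs (mg/l) were read by CLSI M7-A7 microdilution.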

`CCNC(=O)Nc1cc2cccc(Nc3ccc(CC(=O)O)cc3)c2cn1` [Example 205, {4-[3-(3-ethyl-ureido)-isoquinolin-8-ylamino]phenyl}-acetic acid] came in with an MIC of 4 µg/mL (≈ 11 µM).
With `CCNC(=O)Nc1cc2cccc(Nc3ccc(CC(=O)N(C)C)cc3)c2cn1.Cl` [Example 206, 2-{4-[3-(3-ethyl-ureido)-isoquinolin-8-ylamino]phenyl}-N,N-dimethyl-acetamide hydrochloride], the MIC stood at 4 µg/mL.
Take `CCNC(=O)Nc1cc2cccc(Nc3ccc(CC(=O)NC)cc3)c2cn1.Cl` [Example 207, 2-{4-[3-(3-ethyl-ureido)-isoquinolin-8-ylamino]phenyl}-N-methyl-acetamide hydrochloride]: the MIC stood at 2 µg/mL.
The molecule `CCNC(=O)Nc1cc2cccc(Nc3ccc(CC(=O)NCc4ccccc4)cc3)c2cn1.Cl` [Example 208, N-benzyl-2-{4-[3-(3-ethyl-ureido)-isoquinolin-8-ylamino]-phenyl}-acetamide hydrochloride] showed an MIC of 8 µg/mL.
For `CCNC(=O)Nc1cc2cccc(Nc3cccc(CC(=O)O)c3)c2cn1` [Example 209, {3-[3-(3-ethyl-ureido)-isoquinolin-8-ylamino]-phenyl}-acetic acid], the minimal inhibitory concentration (MIC) worked out at 4 µg/mL (≈ 11 µM).
In turn, `CCNC(=O)Nc1cc2cccc(Nc3cccc(CC(=O)NCc4ccccc4)c3)c2cn1.Cl` [Example 210, N-benzyl-2-{3-[3-(3-ethyl-ureido)-isoquinolin-8-ylamino]phenyl}-acetamide hydrochloride] showed an MIC of 8 µg/mL.
In the case of `CCNC(=O)Nc1cc2cccc(Nc3cccc(CC(=O)N(C)C)c3)c2cn1.Cl` [Example 211, 2-{3-[3-(3-ethyl-ureido)-isoquinolin-8-ylamino]phenyl}-N,N-dimethyl-acetamide hydrochloride], inhibition of growth (MIC) required 4 µg/mL.
`CCNC(=O)Nc1cc2cccc(COc3ccncc3C(=O)OC)c2cn1.Cl` [Example 212, 4-[3-(3-ethyl-ureido)-isoquinolin-8-ylmethoxy]-nicotinic acid methyl ester hydrochloride] yielded an MIC of 8 µg/mL.
For the molecule `CCNC(=O)Nc1cc2cccc(COc3cccc(O)c3)c2cn1.Cl` [Example 213, 1-ethyl-3-[8-(3-hydroxy-phenoxymethyl)-isoquinolin-3-yl]-urea hydrochloride], 4 µg/mL was the least that counted as inhibitory (MIC).
In the case of `CCNC(=O)Nc1cc2cccc(Nc3ccc(OC)nc3)c2cn1` [Example 214, 1-ethyl-3-[8-(6-methoxy-pyridin-3-ylamino)-isoquinolin-3-yl]-urea], the lowest concentration to inhibit growth (MIC) was 16 µg/mL (≈ 47.4 µM).
The same measure for `CCNC(=O)Nc1cc2c(F)ccc(-c3cccnc3)c2cn1` [Example 215, 1-ethyl-3-(5-fluoro-8-pyridin-3-yl-isoquinolin-3-yl)-urea]: 16 µg/mL (≈ 51.6 µM).
The same measure for `C=Cc1cc(C)c2cnc(NC(=O)NCC)cc2c1` [Example 216, 1-ethyl-3-(8-methyl-6-vinyl-isoquinolin-3-yl)-urea]: 8 µg/mL (≈ 31.3 µM); for `CCNC(=O)Nc1cc2c(-c3ccncc3)ccc(Nc3cccc(OC)n3)c2cn1` [Example 217, 1-ethyl-3-[8-(6-methoxy-pyridin-2-ylamino)-5-pyridin-4-yl-isoquinolin-3-yl]-urea]: 0.5 µg/mL (≈ 1.21 µM).
Molecule `CCNC(=O)Nc1cc2c(-c3ccncc3)ccc(Nc3ccc(C)nc3)c2cn1` [Example 218, 1-ethyl-3-[8-(6-methyl-pyridin-3-ylamino)-5-pyridin-4-yl-isoquinolin-3-yl]-urea] came in with an MIC of 1 µg/mL (≈ 2.51 µM).
For `CCNC(=O)Nc1cc2c(-c3ccncc3)ccc(Nc3cccc(C)n3)c2cn1` [Example 219, 1-ethyl-3-[8-(6-methyl-pyridin-2-ylamino)-5-pyridin-4-yl-isoquinolin-3-yl]-urea], the minimal inhibitory concentration (MIC) came out at 0.25 µg/mL (≈ 0.627 µM).
The same measure for `CCNC(=O)Nc1cc2c(-c3ccncc3)ccc(Nc3cccc(C(=O)OC)c3)c2cn1` [Example 220, 3-[3-(3-ethyl-ureido)-5-pyridin-4-yl-isoquinolin-8-ylamino]-benzoic acid methyl ester]: 16 µg/mL (≈ 36.2 µM).

The values above are taken from patent publication US20130096119A1, “Isoquinolin-3-Ylurea Derivatives” (priority 2010, published 2013).
